This note sets out measurements from patent publication US20240336565A1, “SOLID FORMS OF OSANETANT” (Acer Therapeutics, Inc., priority 2021, published 2024).

The nature of this data set: Salt screen: XRPD of isolated solids after drying at 40° C. and at 40° C./75% RH. It counts as physicochemical. The note with it: for XRPD after drying at 40° C./75% RH: after 40° C. drying, dried at 40° C./75% RH for about 24 h, label = form after 40° C. drying; for XRPD after drying at 40° C.: isolated solids dried at 40° C. for about 24 h, label = wet form. The procedure:
To approximately 20 mg of amorphous lyophilized osanetant was added 0.3 mL of solvent for liquid counterion experiments. 0.2 mL of solvent was employed for solid counterion experiments. […] To the stirring mixture was then added 1.05 mol eq. of the appropriate counterion. Where solid counterions were used, the vial which contained the counterion was washed in to the osanetant containing vial with 0.1 mL of the appropriate solvent. Additional solvent was added where necessary. The experiments were thermally cycled as follows: heated from 25 to 40° C. at a rate of 0.1° C./min; 1 h at 40° C.; Cool to 5° C. at a rate of 0.1° C.; 1 h at 5° C.; 40° C. at a rate of 0.1° C./min; […] The crystallization experiments were thermally cycled overnight, then slurries were isolated by centrifugation. XRPD analysis was carried out on any isolated solids or gums. The XRPD plate, and the isolated solids, were then dried at 40° C. for about 24 h, and XRPD analysis was repeated. The XRPD plate was then dried at 40° C./75% RH for about 24 h and XRPD analysis was again repeated. All other samples were allowed to evaporated at ambient temperature and pressure.

“Also recorded” adds a separate entry of the source. Marks after values point to notes of the source that are not given here.

As to `CC(=O)N(C)C1(c2ccccc2)CCN(CCC[C@]2(c3ccc(Cl)c(Cl)c3)CCCN(C(=O)c3ccccc3)C2)CC1.CS(=O)(=O)O` [osanetant methanesulfonic acid Form 2, (R)-N-(1-(3-(1-benzoyl-3-(3,4-dichlorophenyl)piperidin-3-yl)propyl)-4-phenylpiperidin-4-yl)-N-methylacetamide methanesulfonic acid], the “XRPD after drying at 40° C./75% RH” value was “Amorphous” and the “XRPD after drying at 40° C.” value was “Form 2”.

With `CC(=O)N(C)C1(c2ccccc2)CCN(CCC[C@]2(c3ccc(Cl)c(Cl)c3)CCCN(C(=O)c3ccccc3)C2)CC1.O=P(O)(O)O` [osanetant phosphoric acid Form 3, (R)-N-(1-(3-(1-benzoyl-3-(3,4-dichlorophenyl)piperidin-3-yl)propyl)-4-phenylpiperidin-4-yl)-N-methylacetamide phosphoric acid], the “XRPD after drying at 40° C./75% RH” value is reported as “retained; also recorded: stable; also recorded: Form 3” and the “XRPD after drying at 40° C.” value is recorded as “Form 3”.

On to `CC(=O)N(C)C1(c2ccccc2)CCN(CCC[C@]2(c3ccc(Cl)c(Cl)c3)CCCN(C(=O)c3ccccc3)C2)CC1.CC(=O)O` [osanetant acetic acid Form 2, (R)-N-(1-(3-(1-benzoyl-3-(3,4-dichlorophenyl)piperidin-3-yl)propyl)-4-phenylpiperidin-4-yl)-N-methylacetamide acetic acid], for which, under “acetic acid”, the “XRPD after drying at 40° C./75% RH” value was “retained; also recorded: stable”.

In the case of `CC(=O)N(C)C1(c2ccccc2)CCN(CCC[C@]2(c3ccc(Cl)c(Cl)c3)CCCN(C(=O)c3ccccc3)C2)CC1.O=S(=O)(O)O` [osanetant sulfuric acid Form 1, (R)-N-(1-(3-(1-benzoyl-3-(3,4-dichlorophenyl)piperidin-3-yl)propyl)-4-phenylpiperidin-4-yl)-N-methylacetamide sulfuric acid], the “XRPD after drying at 40° C.” value is listed as “Form 2”.

`CC(=O)N(C)C1(c2ccccc2)CCN(CCCC2(c3ccc(Cl)c(Cl)c3)CCCN(C(=O)c3ccccc3)C2)CC1.O=C(O)C(O)C(O)C(=O)O` [osanetant L-tartaric acid Form 2]: the “XRPD after drying at 40° C./75% RH” value was “crystallinity was lost” and the “XRPD after drying at 40° C.” value is “no change”.

For the compound `CC(=O)N(C)C1(c2ccccc2)CCN(CCC[C@]2(c3ccc(Cl)c(Cl)c3)CCCN(C(=O)c3ccccc3)C2)CC1.CC(=O)O` [osanetant acetic acid Form 1, (R)-N-(1-(3-(1-benzoyl-3-(3,4-dichlorophenyl)piperidin-3-yl)propyl)-4-phenylpiperidin-4-yl)-N-methylacetamide acetic acid], the “XRPD after drying at 40° C.” value is “changed form on drying at 40 °C to Pattern 2”.

Regarding “(R)-N-(1-(3-(1-benzoyl-3-(3,4-dichlorophenyl)piperidin-3-yl)propyl)-4-phenylpiperidin-4-yl)-N-methylacetamide naphthalene-2-sulfonic acid [osanetant naphthalene-2-sulfonic acid Form 4]”, the “XRPD after drying at 40° C./75% RH” value was “retained; also recorded: stable; also recorded: Form 4” and the “XRPD after drying at 40° C.” value is reported as “retained; also recorded: Form 4”.

For the compound `CC(=O)N(C)C1(c2ccccc2)CCN(CCC[C@]2(c3ccc(Cl)c(Cl)c3)CCCN(C(=O)c3ccccc3)C2)CC1.O=S(=O)(O)O` [osanetant sulfuric acid Form 2, (R)-N-(1-(3-(1-benzoyl-3-(3,4-dichlorophenyl)piperidin-3-yl)propyl)-4-phenylpiperidin-4-yl)-N-methylacetamide sulfuric acid], the “XRPD after drying at 40° C./75% RH” value is on record as “Form 3*”.

With `CC(=O)N(C)C1(c2ccccc2)CCN(CCC[C@]2(c3ccc(Cl)c(Cl)c3)CCCN(C(=O)c3ccccc3)C2)CC1.O=C(O)/C=C/C(=O)O` [osanetant fumaric acid Form 1], the “XRPD after drying at 40° C./75% RH” value is reported as “crystallinity was lost” and the “XRPD after drying at 40° C.” value is “no change”.

As for `CC(=O)N(C)C1(c2ccccc2)CCN(CCC[C@]2(c3ccc(Cl)c(Cl)c3)CCCN(C(=O)c3ccccc3)C2)CC1.CCS(=O)(=O)O` [osanetant ethanesulfonic acid Form 2, (R)-N-(1-(3-(1-benzoyl-3-(3,4-dichlorophenyl)piperidin-3-yl)propyl)-4-phenylpiperidin-4-yl)-N-methylacetamide ethanesulfonic acid], the “XRPD after drying at 40° C./75% RH” value is on record as “Amorphous”.

As to `CC(=O)N(C)C1(c2ccccc2)CCN(CCC[C@]2(c3ccc(Cl)c(Cl)c3)CCCN(C(=O)c3ccccc3)C2)CC1.O=C(O)c1ccccc1` [osanetant benzoic acid Form 1, (R)-N-(1-(3-(1-benzoyl-3-(3,4-dichlorophenyl)piperidin-3-yl)propyl)-4-phenylpiperidin-4-yl)-N-methylacetamide benzoic acid], the “XRPD after drying at 40° C./75% RH” value is given as “no change in form; also recorded: stable” and the “XRPD after drying at 40° C.” value is on record as “no change in form”.

Regarding `CC(=O)N(C)C1(c2ccccc2)CCN(CCC[C@]2(c3ccc(Cl)c(Cl)c3)CCCN(C(=O)c3ccccc3)C2)CC1.O=C(O)C(O)C(O)C(=O)O` [osanetant L-tartaric acid Form 1], the “XRPD after drying at 40° C./75% RH” value was “crystallinity was lost” and the “XRPD after drying at 40° C.” value is given as “no change”.

With `CC(=O)N(C)C1(c2ccccc2)CCN(CCC[C@]2(c3ccc(Cl)c(Cl)c3)CCCN(C(=O)c3ccccc3)C2)CC1.Cc1ccc(S(=O)(=O)O)cc1` [osanetant p-toluenesulfonic acid Form 3, (R)-N-(1-(3-(1-benzoyl-3-(3,4-dichlorophenyl)piperidin-3-yl)propyl)-4-phenylpiperidin-4-yl)-N-methylacetamide p-toluenesulfonic acid], the “XRPD after drying at 40° C.” value was “converted to Pattern 4; also recorded: Form 4”.

Take `CC(=O)N(C)C1(c2ccccc2)CCN(CCC[C@]2(c3ccc(Cl)c(Cl)c3)CCCN(C(=O)c3ccccc3)C2)CC1.O=S(=O)(O)c1ccccc1` [osanetant benzenesulfonic acid Form 4, (R)-N-(1-(3-(1-benzoyl-3-(3,4-dichlorophenyl)piperidin-3-yl)propyl)-4-phenylpiperidin-4-yl)-N-methylacetamide benzenesulfonic acid]: the “XRPD after drying at 40° C./75% RH” value was “converted to Pattern 1; also recorded: Form 1**” and the “XRPD after drying at 40° C.” value is on record as “Form 4”.

On to `CC(=O)N(C)C1(c2ccccc2)CCN(CCC[C@]2(c3ccc(Cl)c(Cl)c3)CCCN(C(=O)c3ccccc3)C2)CC1.CCS(=O)(=O)O` [osanetant ethanesulfonic acid Form 1, (R)-N-(1-(3-(1-benzoyl-3-(3,4-dichlorophenyl)piperidin-3-yl)propyl)-4-phenylpiperidin-4-yl)-N-methylacetamide ethanesulfonic acid], for which the “XRPD after drying at 40° C.” value was “Form 2”.

Consider `CC(=O)N(C)C1(c2ccccc2)CCN(CCC[C@]2(c3ccc(Cl)c(Cl)c3)CCCN(C(=O)c3ccccc3)C2)CC1.O=P(O)(O)O` [osanetant phosphoric acid Form 2, (R)-N-(1-(3-(1-benzoyl-3-(3,4-dichlorophenyl)piperidin-3-yl)propyl)-4-phenylpiperidin-4-yl)-N-methylacetamide phosphoric acid], for which the “XRPD after drying at 40° C./75% RH” value is “converted to Pattern 4; also recorded: Form 4*” and the “XRPD after drying at 40° C.” value is on record as “Form 2”.

As to `CC(=O)N(C)C1(c2ccccc2)CCN(CCC[C@]2(c3ccc(Cl)c(Cl)c3)CCCN(C(=O)c3ccccc3)C2)CC1.O=P(O)(O)O` [osanetant phosphoric acid Form 4, (R)-N-(1-(3-(1-benzoyl-3-(3,4-dichlorophenyl)piperidin-3-yl)propyl)-4-phenylpiperidin-4-yl)-N-methylacetamide phosphoric acid], the “XRPD after drying at 40° C./75% RH” value was “stable”.

For the compound “(R)-N-(1-(3-(1-benzoyl-3-(3,4-dichlorophenyl)piperidin-3-yl)propyl)-4-phenylpiperidin-4-yl)-N-methylacetamide naphthalene-2-sulfonic acid [osanetant naphthalene-2-sulfonic acid Form 1]”, the “XRPD after drying at 40° C./75% RH” value is reported as “retained; also recorded: stable; also recorded: Form 1” and the “XRPD after drying at 40° C.” value is recorded as “retained; also recorded: Form 1”.

Consider `CC(=O)N(C)C1(c2ccccc2)CCN(CCC[C@]2(c3ccc(Cl)c(Cl)c3)CCCN(C(=O)c3ccccc3)C2)CC1.CS(=O)(=O)O` [osanetant methanesulfonic acid Form 1, (R)-N-(1-(3-(1-benzoyl-3-(3,4-dichlorophenyl)piperidin-3-yl)propyl)-4-phenylpiperidin-4-yl)-N-methylacetamide methanesulfonic acid], for which the “XRPD after drying at 40° C./75% RH” value is reported as “Amorphous” and the “XRPD after drying at 40° C.” value is “Form 1”.

Consider `CC(=O)N(C)C1(c2ccccc2)CCN(CCC[C@]2(c3ccc(Cl)c(Cl)c3)CCCN(C(=O)c3ccccc3)C2)CC1.Cc1ccc(S(=O)(=O)O)cc1` [osanetant p-toluenesulfonic acid Form 2, (R)-N-(1-(3-(1-benzoyl-3-(3,4-dichlorophenyl)piperidin-3-yl)propyl)-4-phenylpiperidin-4-yl)-N-methylacetamide p-toluenesulfonic acid], for which the “XRPD after drying at 40° C./75% RH” value was “converted to Pattern 1; also recorded: Form 1” and the “XRPD after drying at 40° C.” value is “retained; also recorded: Form 2”.
